Laboratory results as given in the supplement of paper PMC11451515.

Assays:
Conditions in all cases: 48 h
NOMO1 [1] = experiment: cell viability relative to DMSO control; higher = less cytotoxic
Outline: (§1)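 Leukemia cells (NOMO1 or SEM, 500 cells/well; P12-Ichikawa, 1000 cells/well) were seeded in 5 μl in 1536-well plates after at least four passages of adaptation to each medium. They received library compounds in DMSO by pin dosing, 11 threefold points from 47 μM to 0.79 nM. Luminescence with CellTiter-Glo One was read after 48 h at 37°C. Viability is stated per plate relative to DMSO wells, with cell-free wells as background.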

P12-Ichikawa [2] = experiment: as above
Outline: as §1

SEM cells [3] = experiment: as above
Outline: as §1

NOMO1 [4] = experiment: AUC of viability dose-response curve (% viability x log10 dose units); higher = less sensitive
Outline: (§2)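 Over 48 h at 37°C, leukemia cells in 1536-well plates (500 or 1000 cells/well), adapted to each medium, received library compounds in DMSO at 11 threefold doses from 47 μM to 0.79 nM. CellTiter-Glo One luminescence, normalised per plate to DMSO and cell-free wells, was fitted by a four-parameter log-logistic function of log10 dose. The area under the curve was then integrated by trapezoidal rule, after scaling curves above full viability and removing those that failed quality control.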

P12-Ichikawa [5] = experiment: as above
Outline: as §2

SEM cells [6] = experiment: as above
Outline: as §2

c1ccc(CNc2nc(N3CCOc4ccccc43)nc3c2CCCC3)cc1
cell viability [%]
Conditions | NOMO1 [1] | P12-Ichikawa [2] | SEM cells [3]
HPLM + 10% dialyzed FBS, 0.000781 µM | 78.1 | 101 | 87
HPLM + 10% dialyzed FBS, 0.00234 µM | 97.2 | 102 | 94.6
HPLM + 10% dialyzed FBS, 0.00702 µM | 110 | 107 | 88.7
HPLM + 10% dialyzed FBS, 0.0211 µM | 103 | 108 | 96.9
HPLM + 10% dialyzed FBS, 0.0632 µM | 110 | 117 | 102
HPLM + 10% dialyzed FBS, 0.19 µM | 93.4 | 99.5 | 109
HPLM + 10% dialyzed FBS, 0.569 µM | 103 | 128 | 93.3
HPLM + 10% dialyzed FBS, 1.71 µM | 111 | 115 | 106
HPLM + 10% dialyzed FBS, 5.12 µM | 107 | 109 | 98.5
HPLM + 10% dialyzed FBS, 15.4 µM | 100 | 107 | 89.9
HPLM + 10% dialyzed FBS, 46.1 µM | 97.8 | 107 | 83.2
RPMI 5 mM glucose + 10% FBS, 0.000781 µM | 100 | 102 | 91
RPMI 5 mM glucose + 10% FBS, 0.00234 µM | 97.7 | 99.9 | 88.6
RPMI 5 mM glucose + 10% FBS, 0.00702 µM | 109 | 100 | 87
RPMI 5 mM glucose + 10% FBS, 0.0211 µM | 94.9 | 106 | 89.4
RPMI 5 mM glucose + 10% FBS, 0.0632 µM | 99.9 | 105 | 101
RPMI 5 mM glucose + 10% FBS, 0.19 µM | 106 | 110 | 96.2
RPMI 5 mM glucose + 10% FBS, 0.569 µM | 106 | 111 | 89.5
RPMI 5 mM glucose + 10% FBS, 1.71 µM | 107 | 106 | 95.9
RPMI 5 mM glucose + 10% FBS, 5.12 µM | 106 | 108 | 91.4
RPMI 5 mM glucose + 10% FBS, 15.4 µM | 110 | 100 | 77.7
RPMI 5 mM glucose + 10% FBS, 46.1 µM | 90.2 | 96.9 | 71
RPMI 5 mM glucose + 10% dialyzed FBS, 0.000781 µM | 102 | 102 | 75
RPMI 5 mM glucose + 10% dialyzed FBS, 0.00234 µM | 103 | 112 | 91.3
RPMI 5 mM glucose + 10% dialyzed FBS, 0.00702 µM | 112 | 107 | 96.5
RPMI 5 mM glucose + 10% dialyzed FBS, 0.0211 µM | 105 | 114 | 96.8
RPMI 5 mM glucose + 10% dialyzed FBS, 0.0632 µM | 112 | 110 | 95.5
RPMI 5 mM glucose + 10% dialyzed FBS, 0.19 µM | 111 | 105 | 103
RPMI 5 mM glucose + 10% dialyzed FBS, 0.569 µM | 114 | 110 | 106
RPMI 5 mM glucose + 10% dialyzed FBS, 1.71 µM | 109 | 116 | 108
RPMI 5 mM glucose + 10% dialyzed FBS, 5.12 µM | 109 | 105 | 94.5
RPMI 5 mM glucose + 10% dialyzed FBS, 15.4 µM | 97.6 | 103 | 82.7
RPMI 5 mM glucose + 10% dialyzed FBS, 46.1 µM | 98.8 | 104 | 82.9

AUC of viability dose-response curve
Conditions | NOMO1 [4] | P12-Ichikawa [5] | SEM cells [6]
HPLM + 10% dialyzed FBS | 468 | 461 | 455
RPMI 5 mM glucose + 10% FBS | 473 | 476 | 428
RPMI 5 mM glucose + 10% dialyzed FBS | 470 | 472 | 451

N[S+](=O)([O-])c1cccc2c1C(=O)c1cccc(O)c1C2=O
cell viability [%]
Conditions | NOMO1 [1] | P12-Ichikawa [2] | SEM cells [3]
HPLM + 10% dialyzed FBS, 0.000781 µM | 105 | 108 | 84.4
HPLM + 10% dialyzed FBS, 0.00234 µM | 115 | 106 | 95.8
HPLM + 10% dialyzed FBS, 0.00702 µM | 112 | 115 | 98.9
HPLM + 10% dialyzed FBS, 0.0211 µM | 105 | 111 | 84.2
HPLM + 10% dialyzed FBS, 0.0632 µM | 119 | 121 | 91.8
HPLM + 10% dialyzed FBS, 0.19 µM | 106 | 114 | 91.5
HPLM + 10% dialyzed FBS, 0.569 µM | 107 | 114 | 61.6
HPLM + 10% dialyzed FBS, 1.71 µM | 85 | 118 | 59.9
HPLM + 10% dialyzed FBS, 5.12 µM | 91.6 | 105 | 53.7
HPLM + 10% dialyzed FBS, 15.4 µM | 78.7 | 80.9 | 44.1
HPLM + 10% dialyzed FBS, 46.1 µM | 4.98 | 4.7 | 3.56
RPMI 5 mM glucose + 10% FBS, 0.000781 µM | 110 | 102 | 95.8
RPMI 5 mM glucose + 10% FBS, 0.00234 µM | 101 | 105 | 96.3
RPMI 5 mM glucose + 10% FBS, 0.00702 µM | 103 | 108 | 102
RPMI 5 mM glucose + 10% FBS, 0.0211 µM | 98.5 | 112 | 68.9
RPMI 5 mM glucose + 10% FBS, 0.0632 µM | 115 | 116 | 94.7
RPMI 5 mM glucose + 10% FBS, 0.19 µM | 107 | 123 | 83.2
RPMI 5 mM glucose + 10% FBS, 0.569 µM | 91.9 | 106 | 51.1
RPMI 5 mM glucose + 10% FBS, 1.71 µM | 94.9 | 111 | 44.2
RPMI 5 mM glucose + 10% FBS, 5.12 µM | 88.2 | 96.7 | 21.9
RPMI 5 mM glucose + 10% FBS, 15.4 µM | 97.1 | 102 | 4.54
RPMI 5 mM glucose + 10% FBS, 46.1 µM | 3.99 | 3.97 | 3.13
RPMI 5 mM glucose + 10% dialyzed FBS, 0.000781 µM | 97.6 | 98.9 | 89.4
RPMI 5 mM glucose + 10% dialyzed FBS, 0.00234 µM | 104 | 95.8 | 102
RPMI 5 mM glucose + 10% dialyzed FBS, 0.00702 µM | 97.3 | 110 | 96.1
RPMI 5 mM glucose + 10% dialyzed FBS, 0.0211 µM | 103 | 106 | 62.1
RPMI 5 mM glucose + 10% dialyzed FBS, 0.0632 µM | 102 | 113 | 95.1
RPMI 5 mM glucose + 10% dialyzed FBS, 0.19 µM | 107 | 121 | 70
RPMI 5 mM glucose + 10% dialyzed FBS, 0.569 µM | 108 | 104 | 40.8
RPMI 5 mM glucose + 10% dialyzed FBS, 1.71 µM | 94.9 | 112 | 33.3
RPMI 5 mM glucose + 10% dialyzed FBS, 5.12 µM | 94.3 | 94.3 | 18.3
RPMI 5 mM glucose + 10% dialyzed FBS, 15.4 µM | 82.9 | 92.8 | 24.5
RPMI 5 mM glucose + 10% dialyzed FBS, 46.1 µM | 4.93 | 3.3 | 3.78

AUC of viability dose-response curve
Conditions | NOMO1 [4] | P12-Ichikawa [5] | SEM cells [6]
HPLM + 10% dialyzed FBS | 434 | 439 | 343
RPMI 5 mM glucose + 10% FBS | 452 | 451 | 295
RPMI 5 mM glucose + 10% dialyzed FBS | 443 | 447 | 278
